Assay [1] deals with T1, EGFr isolated from solubilised A431 cell membranes (Homo sapiens, UniProt P00533).
T1 construct: EGFr isolated from solubilised A431 cell membranes; endogenous in cells; host or cells: A431 cell membranes (solubilised)
In words: Substrate phosphorylation assay, EGFr. The class given is biochemical. The following applies: 30 minutes, room temperature, ATP and peptide at Km concentrations. The protocol:
(§1) The substrate phosphorylation assays use baculovirus expressed, recombinant constructs of the intracellular domains of c-erbB-2 and c-erbB-4 that are constitutively active and EGFr isolated from solubilised A431 cell membranes. The method measures the ability of the isolated enzymes to catalyse the transfer of the γ-phosphate from ATP onto tyrosine residues in a biotinylated synthetic peptide (Biotin-[…]. […] The reaction is stopped by the addition of EDTA (final concentration 0.15 mM) and a sample is transferred to a streptavidin-coated 96-well plate. The plate is washed and level of phosphotyrosine on the peptide is determined using a Europium-labelled antiphosphotyrosine antibody and quantified with a time-resolved fluorescence technique.

Assay [2] has as its target T2, c-erbB-2 (baculovirus expressed, recombinant intracellular domain) (Homo sapiens, UniProt P04626).
T2 construct: baculovirus expressed, recombinant constructs of the intracellular domains of c-erbB-2 and c-erbB-4; made in house
In words: Substrate phosphorylation assay, c-erbB-2. The following applies: read-out: Substrate Phosphorylation erbB-2. The class given is biochemical. The protocol:
as §1

For assay [3], the target named is T3, c-erbB-4 (baculovirus expressed, recombinant intracellular domain) (Homo sapiens, UniProt Q15303).
T3 construct: baculovirus expressed, recombinant constructs of the intracellular domains of c-erbB-2 and c-erbB-4; made in house
The assay can be described thus: Substrate phosphorylation assay, c-erbB-4. Type of assay: biochemical. The protocol:
as §1

For assay [4], the target named is HB4a cell line transformed by over-expression of c-erbB-2 (Homo sapiens, UniProt P04626). The assay can be described thus: Cell proliferation assay, HB4a erbB-2. The following applies: 4 days at 37° C., methylene blue staining; read-out: Cell Proliferation HB4a erbB-2. The class given is cell-based. The protocol: The cell proliferation assay uses an immortalised human breast epithelial cell line (HB4a) which has been transformed by over-expression of c-erbB-2. Growth of these cells in low serum is dependent upon the c-erbB-2 tyrosine kinase activity. […] Cells are plated at 3000/ well in 96-well plates in 0.1 ml medium and allowed to attach overnight. test compound is added in 0.1 ml medium, with a final concentration of 0.5% DMSO, and the plates incubated for 4 days at 37° C. The cells are then examined microscopically for evidence of morphological detransformation and cell mass is estimated by staining with methylene blue and measuring the absorbance at 620 nm. […] Activity against a range of naturally occurring EGFr or c-erbB-2 over-expressing human tumour cell lines (BT474-breast, HN5-head and neck, N87-gastric and Calu3-lung) is assessed with selected compounds by the same methodology.

Assay [5] deals with HB4a cell line transfected with ras. The assay can be described thus: Cell proliferation assay, HB4a ras. Type of assay: cell-based, human. The following applies: 4 days at 37° C., methylene blue staining, general toxicity control, read-out: Cell Proliferation HB4a ras.
For assay [6], the system named is BT474-breast tumour cell line. The assay can be described thus: Cell proliferation assay, BT474. The class given is cell-based, human. Particulars: same methodology, 4 days. The protocol:
(§2) The cell proliferation assay uses an immortalised human breast epithelial cell line (HB4a) which has been transformed by over-expression of c-erbB-2. Growth of these cells in low serum is dependent upon the c-erbB-2 tyrosine kinase activity. The specificity of the effect of the test compounds on tyrosine kinase dependent growth over general toxicity is assessed by comparison to an HB4a cell line which has been transfected with ras. Cells are plated at 3000/ well in 96-well plates in 0.1 ml medium and allowed to attach overnight. test compound is added in 0.1 ml medium, with a final concentration of 0.5% DMSO, and the plates incubated for 4 days at 37° C. The cells are then examined microscopically for evidence of morphological detransformation and cell mass is estimated by staining with methylene blue and measuring the absorbance at 620 nm. The results are shown in Table 1 below as the IC50 values in nM. Activity against a range of naturally occurring EGFr or c-erbB-2 over-expressing human tumour cell lines (BT474-breast, HN5-head and neck, N87-gastric and Calu3-lung) is assessed with selected compounds by the same methodology. The results are also shown in Table 1 below as the IC50 values in nM.

Assay [7] concerns N87-gastric tumour cell line. The assay can be described thus: Cell proliferation assay, N87. Type of assay: cell-based, human. The following applies: same methodology, 4 days. The protocol: as §2
In assay [8] the test system is Calu3-lung tumour cell line. The assay can be described thus: Cell proliferation assay, Calu3. Type of assay: cell-based, human. Particulars: same methodology, 4 days. The protocol:
as §2

The test system of assay [9] is HN5-head and neck tumour cell line. The assay can be described thus: Cell proliferation assay, HN5. Type of assay: cell-based, human. Particulars: same methodology, 4 days. The protocol: as §2

Structures are written as SMILES. Where a name gives a salt, the structure may show the parent alone. Read-outs that look alike come from different tables or passages of the source.

T2 sequence (P04626 676-1255 limits assumed): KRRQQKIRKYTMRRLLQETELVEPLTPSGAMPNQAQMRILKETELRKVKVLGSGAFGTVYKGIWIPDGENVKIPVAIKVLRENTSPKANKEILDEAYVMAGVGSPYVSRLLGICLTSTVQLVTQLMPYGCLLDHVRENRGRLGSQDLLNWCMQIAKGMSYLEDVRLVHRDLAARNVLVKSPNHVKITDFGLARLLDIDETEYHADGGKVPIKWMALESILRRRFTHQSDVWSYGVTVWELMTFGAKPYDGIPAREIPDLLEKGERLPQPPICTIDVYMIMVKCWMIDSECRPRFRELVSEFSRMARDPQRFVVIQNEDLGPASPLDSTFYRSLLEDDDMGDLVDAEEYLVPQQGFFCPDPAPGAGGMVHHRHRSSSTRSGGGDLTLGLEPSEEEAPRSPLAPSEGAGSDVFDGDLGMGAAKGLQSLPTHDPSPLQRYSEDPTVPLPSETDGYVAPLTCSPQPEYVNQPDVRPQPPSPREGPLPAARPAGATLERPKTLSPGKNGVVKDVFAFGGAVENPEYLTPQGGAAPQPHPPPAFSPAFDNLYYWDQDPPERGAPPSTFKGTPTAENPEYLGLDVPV
T1 sequence (P00533 25-1210): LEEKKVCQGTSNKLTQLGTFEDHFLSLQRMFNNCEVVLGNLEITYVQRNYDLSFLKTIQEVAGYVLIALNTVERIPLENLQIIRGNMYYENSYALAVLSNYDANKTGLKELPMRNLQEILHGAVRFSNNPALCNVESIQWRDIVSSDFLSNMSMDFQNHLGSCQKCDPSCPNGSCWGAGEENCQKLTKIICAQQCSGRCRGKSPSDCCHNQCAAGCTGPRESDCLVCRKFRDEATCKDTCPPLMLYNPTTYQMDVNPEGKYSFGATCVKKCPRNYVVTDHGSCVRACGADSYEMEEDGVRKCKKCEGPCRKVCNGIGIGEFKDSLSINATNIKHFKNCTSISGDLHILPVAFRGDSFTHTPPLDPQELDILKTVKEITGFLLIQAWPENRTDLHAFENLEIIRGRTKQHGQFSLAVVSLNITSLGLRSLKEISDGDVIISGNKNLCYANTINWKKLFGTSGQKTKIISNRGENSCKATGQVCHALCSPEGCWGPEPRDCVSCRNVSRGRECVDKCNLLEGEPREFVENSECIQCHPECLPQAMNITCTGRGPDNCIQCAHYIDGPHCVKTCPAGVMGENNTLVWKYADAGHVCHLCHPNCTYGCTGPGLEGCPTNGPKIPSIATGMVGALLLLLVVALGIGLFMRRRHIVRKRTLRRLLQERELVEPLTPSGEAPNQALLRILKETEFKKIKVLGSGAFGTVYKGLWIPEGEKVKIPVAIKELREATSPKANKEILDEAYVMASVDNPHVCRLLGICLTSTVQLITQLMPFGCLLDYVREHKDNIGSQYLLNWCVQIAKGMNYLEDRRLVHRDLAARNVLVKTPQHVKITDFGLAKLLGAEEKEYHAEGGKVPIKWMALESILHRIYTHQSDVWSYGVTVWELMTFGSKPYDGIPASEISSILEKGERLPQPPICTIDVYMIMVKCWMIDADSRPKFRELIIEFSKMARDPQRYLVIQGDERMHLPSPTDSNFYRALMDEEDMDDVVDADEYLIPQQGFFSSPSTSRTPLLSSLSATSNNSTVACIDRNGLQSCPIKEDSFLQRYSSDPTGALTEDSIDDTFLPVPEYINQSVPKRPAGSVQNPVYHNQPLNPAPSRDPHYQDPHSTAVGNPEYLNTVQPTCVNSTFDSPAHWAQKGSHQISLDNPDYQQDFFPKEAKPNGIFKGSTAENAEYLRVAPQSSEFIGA
T3 sequence (Q15303 676-1308 limits assumed): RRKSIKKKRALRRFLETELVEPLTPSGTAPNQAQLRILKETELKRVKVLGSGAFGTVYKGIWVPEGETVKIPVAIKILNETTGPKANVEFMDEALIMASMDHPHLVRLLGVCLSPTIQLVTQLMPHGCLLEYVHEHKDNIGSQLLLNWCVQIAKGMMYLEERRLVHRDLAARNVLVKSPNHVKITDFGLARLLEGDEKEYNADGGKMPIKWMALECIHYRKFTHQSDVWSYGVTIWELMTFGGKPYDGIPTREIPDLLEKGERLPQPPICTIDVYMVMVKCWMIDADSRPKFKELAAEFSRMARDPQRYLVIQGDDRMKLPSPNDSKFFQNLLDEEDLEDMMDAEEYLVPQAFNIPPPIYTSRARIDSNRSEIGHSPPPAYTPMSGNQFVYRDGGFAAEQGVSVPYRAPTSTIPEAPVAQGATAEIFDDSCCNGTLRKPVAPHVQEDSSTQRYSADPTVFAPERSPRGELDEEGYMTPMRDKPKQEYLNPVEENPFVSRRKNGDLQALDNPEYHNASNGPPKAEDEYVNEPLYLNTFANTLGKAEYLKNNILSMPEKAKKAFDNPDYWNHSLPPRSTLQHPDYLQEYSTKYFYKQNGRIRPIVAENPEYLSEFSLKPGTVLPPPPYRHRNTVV
HB4a cell line transformed by over-expression of c-erbB-2, sequence (P04626 whole entry, change not shown): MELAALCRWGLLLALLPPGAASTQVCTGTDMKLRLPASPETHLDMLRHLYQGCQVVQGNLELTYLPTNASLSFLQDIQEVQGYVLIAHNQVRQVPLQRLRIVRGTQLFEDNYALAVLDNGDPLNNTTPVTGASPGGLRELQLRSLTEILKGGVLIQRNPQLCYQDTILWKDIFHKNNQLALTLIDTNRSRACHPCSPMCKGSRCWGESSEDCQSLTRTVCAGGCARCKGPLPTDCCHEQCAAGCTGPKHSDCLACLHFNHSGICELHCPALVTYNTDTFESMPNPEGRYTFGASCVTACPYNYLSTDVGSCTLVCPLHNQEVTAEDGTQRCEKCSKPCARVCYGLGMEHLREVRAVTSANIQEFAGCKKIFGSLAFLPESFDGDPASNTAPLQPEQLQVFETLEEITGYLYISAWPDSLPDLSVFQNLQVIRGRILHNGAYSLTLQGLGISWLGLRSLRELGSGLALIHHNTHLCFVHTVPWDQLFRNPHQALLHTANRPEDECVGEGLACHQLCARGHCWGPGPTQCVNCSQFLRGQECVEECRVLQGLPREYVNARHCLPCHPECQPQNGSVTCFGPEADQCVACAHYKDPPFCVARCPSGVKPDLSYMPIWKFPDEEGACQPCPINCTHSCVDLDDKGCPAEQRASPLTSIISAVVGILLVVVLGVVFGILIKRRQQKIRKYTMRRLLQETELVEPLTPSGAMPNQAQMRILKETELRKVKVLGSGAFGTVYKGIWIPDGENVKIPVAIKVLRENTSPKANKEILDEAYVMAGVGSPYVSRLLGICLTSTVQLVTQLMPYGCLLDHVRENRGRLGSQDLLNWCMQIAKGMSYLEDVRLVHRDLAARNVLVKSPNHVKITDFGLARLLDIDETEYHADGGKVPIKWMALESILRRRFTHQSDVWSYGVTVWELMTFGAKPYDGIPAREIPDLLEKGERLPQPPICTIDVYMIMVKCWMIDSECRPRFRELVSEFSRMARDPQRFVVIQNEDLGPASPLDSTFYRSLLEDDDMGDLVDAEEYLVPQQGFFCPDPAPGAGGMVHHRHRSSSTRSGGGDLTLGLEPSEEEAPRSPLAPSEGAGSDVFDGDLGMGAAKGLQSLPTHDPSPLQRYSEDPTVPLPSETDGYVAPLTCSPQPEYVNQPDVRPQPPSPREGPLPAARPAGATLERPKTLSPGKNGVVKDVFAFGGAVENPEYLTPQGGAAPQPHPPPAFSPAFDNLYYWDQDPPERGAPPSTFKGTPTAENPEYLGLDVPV

Turning to `Cn1cncc1-c1ccc2ncnc(Nc3ccc(OCc4ccccc4)cc3)c2c1` [Example 6, (4-Benzyloxy-phenyl)-(6-(3-methyl-3H-imidazol-4-yl)-quinazolin-4-yl)-amine], the IC50 in [1] is 680 nM; in assay [2] it was 110 nM; in [3], 1000 nM; in [5] (Homo sapiens, HB4a, 96 h), 16000 nM; in assay [6] (Homo sapiens, BT-474, 96 h) it was 1900 nM; in [7] (Homo sapiens, 96 h), 1800 nM. Further, the IC50 in assay [8] (Homo sapiens, Calu-3, 96 h) was 5800 nM; in assay [9] (Homo sapiens, 96 h) it was 5200 nM. Also, the GI50 in [4] came out at 1600 nM.

As to `NC(=O)[C@@H]1CCCN1Cc1ccc(-c2ccc3ncnc(Nc4ccc(OCc5ccccc5)cc4)c3c2)o1` [Example 11, (S)-1-(5-(4-(4-Benzyloxy-phenylamino)-quinazolin-6-yl)-furan-2-ylmethyl)-pyrrolidine-2-carboxylicacid amide], the IC50 was 160 nM in assay [1]; 36 nM in assay [2]; 660 nM in assay [3]; 14000 nM in [5] (Homo sapiens, HB4a, 96 h); 180 nM in [6] (Homo sapiens, BT-474, 96 h); 480 nM in assay [7] (Homo sapiens, 96 h). The IC50 was 930 nM in [8] (Homo sapiens, Calu-3, 96 h) and 940 nM in assay [9] (Homo sapiens, 96 h). Also, the GI50 in assay [4] was 580 nM.

With `NC(=O)[C@@H]1CCCN1Cc1ccc(-c2ccc3ncnc(Nc4ccc5c(cnn5Cc5ccccc5)c4)c3c2)o1` [Example 18, (S)-1-(5-(4-(1-Benzyl-1H-indazol-5-ylamino)-quinazolin-6-yl)-furan-2-ylmethyl)-pyrrolidine-2-carboxylic acid amide dihydrochloride], the IC50 in assay [2] is 45 nM; in assay [3], 34 nM; in assay [5] (Homo sapiens, HB4a, 96 h), > 50000 nM; in assay [6] (Homo sapiens, BT-474, 96 h), 2 nM; in assay [7] (Homo sapiens, 96 h), 180 nM; in assay [8] (Homo sapiens, Calu-3, 96 h), 360 nM. In addition, in [9] (Homo sapiens, 96 h), the IC50 was determined as 840 nM. Further, the GI50 in assay [4] came out at 9 nM.

`CS(=O)(=O)CCNCc1ccc(-c2ccc3ncnc(Nc4ccc5c(cnn5Cc5ccccc5)c4)c3c2)o1` [Example 19, (1-Benzyl-1H-indazol-5-yl)-(6-(5-((2-methanesulphonyl-ethylamino)-methyl)-furan-2-yl)-quinazolin-4-yl)-amine dihydrochloride]: the IC50 in assay [1] was determined as 8 nM; in assay [2], 1 nM; in [3], 240 nM; in assay [5] (Homo sapiens, HB4a, 96 h), 25000 nM; in assay [6] (Homo sapiens, BT-474, 96 h), 110 nM; in assay [7] (Homo sapiens, 96 h), 380 nM. Besides, the IC50 in assay [8] (Homo sapiens, Calu-3, 96 h) turned out to be 920 nM; in [9] (Homo sapiens, 96 h), 670 nM. In [4], the GI50 was found to be 50 nM.

With `Cc1nnc(-c2ccc3ncnc(Nc4ccc5c(cnn5Cc5cccc(F)c5)c4)c3c2)o1` [Example 22, (1-(3-Fluorobenzyl)-1H-indazol-5-yl)-(6-(5-methyl-1,3,4-oxadiazol-2-yl)-quinazolin-4-yl)-amine hydrochloride], the IC50 in assay [1] was 8 nM; in assay [5] (Homo sapiens, HB4a, 96 h) it was 27000 nM; in [6] (Homo sapiens, BT-474, 96 h) it was 97 nM; in assay [7] (Homo sapiens, 96 h), 600 nM; in assay [8] (Homo sapiens, Calu-3, 96 h), 2200 nM; in assay [9] (Homo sapiens, 96 h) it was 910 nM. Further, the GI50 in [4] was found to be 430 nM.

Take `Cc1nnc(-c2ccc3ncnc(Nc4ccc(OCc5cccc(F)c5)cc4)c3c2)o1` [Example 29, hydrochloride]: the IC50 in [1] was 23 nM; in assay [2] (30 minutes, room temperature, ATP and peptide at Km concentrations), 3 nM; in assay [5], > 50000 nM; in assay [6] it was 770 nM; in assay [7], 2400 nM; in [8], 23000 nM. Besides, the IC50 in assay [9] came out at 4400 nM. The GI50 in assay [4] was determined as 2500 nM.

In the case of `Cc1nnc(-c2ccc3ncnc(Nc4ccc5c(cnn5Cc5ccccc5)c4)c3c2)o1` [Example 41, (1-Benzyl-1H-indazol-5-yl)-(6-(5-methyl-1,3,4-oxadiazol-2-yl)-quinazolin-4-yl)-amine hydrochloride], the IC50 was found to be 2 nM in [1]; 10 nM in assay [2]; 1000 nM in assay [3]; 35000 nM in assay [5] (Homo sapiens, HB4a, 96 h); 260 nM in [6] (Homo sapiens, BT-474, 96 h); 1400 nM in assay [7] (Homo sapiens, 96 h). The IC50 in [8] (Homo sapiens, Calu-3, 96 h) is 5300 nM; in assay [9] (Homo sapiens, 96 h), 970 nM. Further, the GI50 in [4] was determined as 610 nM.
